For assay [1], the system named is rats. The experiment in a line: novel-object-location (NOL) tests. The class given is in vivo. Conditions: diet. As to the method:
Mg-DHA composition is provided as supplement in standard rat feed. On an average, rats consume about 50 mg/Kg/day of elemental Mg, on a feeding schedule so as to maintain 85% of its free-feeding weight. In the control group, rats are fed either DHA or magnesium citrate (Mg Citrate) supplemented diet on schedule similar to test group. After habituation to the apparatus and pre-training, each rat undergoes 4 trials of standard T-maze test (Shoji et al, J. Vis. Exp. (60), e3300, DOI: 10.3791/3300 (2012)) on day 1 or day 21 of Mg-DHA, Mg Citrate, or DHA feeding. Rats are subject to either forced alternation task or left-right discrimination task. Behaviors in the T-maze apparatus is recorded and statistically analyzed by two way repeated measures analysis of variance. […] In another set of experiments, rats fed with DHA, Mg Citrate, or Mg-DHA for 21 days are subject to novel-object-location (NOL) tests.
Mg-DHA composition is provided as supplement in standard rat feed. On an average, rats consume about 50 mg/Kg/day of elemental Mg, on a feeding schedule so as to maintain 85% of its free-feeding weight. In the control group, rats are fed DHA-LysoPC or Mg Citrate supplemented diet on schedule similar to test group. After habituation to the apparatus and pre-training, each rat undergoes 4 trials of standard T-maze test (Shoji et al, J. Vis. Exp. (60), e3300, DOI: 10.3791/3300 (2012)) on day 1 or day 21 of Mg-DHA-LysoPC, Mg Citrate or DHA-LysoPC feeding. Rats are subjected to either forced alternation task or left-right discrimination task. Behaviors in the T-maze apparatus is recorded and statistically analyzed by two way repeated measures analysis of variance. […] In another set of experiments, rats fed with Mg Citrate, DHA-LysoPC, or Mg-DHA-LysoPC for 21 days are subjected to novel-object-location (NOL) tests.
Mg-EPA composition is provided as supplement in standard rat feed. On an average, rats consume about 50 mg/Kg/day of elemental Mg, on a feeding schedule so as to maintain 85% of its free-feeding weight. In the control group, rats are fed EPA or Mg Citrate supplemented diet on scheduled similar to test group. After habituation to the apparatus and pre-training, each rat undergoes 4 trials of standard T-maze test (Shoji et al, J. Vis. Exp. (60), e3300, DOI: 10.3791/3300 (2012)) on day 1 or day 21 of Mg-EPA, Mg Citrate, or EPA feeding. Rats are subjected to either forced alternation task or left-right discrimination task. Behaviors in the T-maze apparatus is recorded and statistically analyzed by two way repeated measures analysis of variance. […]
Zn-DHA composition is provided as supplement in standard rat feed. […] Behaviors in the T-maze apparatus is recorded and statistically analyzed by two way repeated measures analysis of variance. […]

For assay [2], the system named is Sprague-Dawley rats. The experiment in a line: Forced Swim Test. Conditions: diet. The class given is in vivo. The text has this: Sprague-Dawley rats are fed diet supplemented with Mg-DHA, Mg Citrate, or DHA. […] Various established parameters of antidepressant activity including reduced immobility time, increased swimming, and increased climbing behavior are quantitated to assess the antidepressant activity.
Sprague-Dawley rats are fed diet supplemented with Mg-DHA-LysoPC, Mg Citrate, or DHA-lysoPC. […] Various established parameters of antidepressant activity including reduced immobility time, increased swimming, and increased climbing behavior are quantitated to assess the antidepressant activity.
Sprague-Dawley rats are fed diet supplemented with Mg-EPA, Mg Citrate, or EPA. […] Various established parameters of antidepressant activity including reduced immobility time, increased swimming, and increased climbing behavior are quantitated to assess the antidepressant activity.
Sprague-Dawley rats are fed diet supplemented with Zn-DHA, Zinc gluconate, or DHA. On Zn-DHA or Zinc gluconate supplemented diet, rats consume about 1 mg/kg body weight/day of elemental zinc, on a feeding schedule so as to maintain 85% of its free-feeding weight. […] Various established parameters of antidepressant activity including reduced immobility time, increased swimming, and increased climbing behavior are quantitated to assess the antidepressant activity.
Sprague-Dawley rats are fed diet supplemented with Zn-DHA-lysoPC, zinc gluconate, or DHA. On Zn-DHA-lysoPC or zinc gluconate supplemented diet, rats consume about 1 mg/kg body weight/day of elemental zinc, on a feeding schedule so as to maintain 85% of its free-feeding weight. […] Various established parameters of antidepressant activity including reduced immobility time, increased swimming, and increased climbing behavior are quantitated to assess the antidepressant activity.
Sprague-Dawley rats are fed diet supplemented with Zn-EPA, zinc gluconate, or EPA. On Zn-EPA or zinc gluconate supplemented diet, rats consume about 1 mg/kg body weight/day of elemental zinc, on a feeding schedule so as to maintain 85% of its free-feeding weight. […] Various established parameters of antidepressant activity including reduced immobility time, increased swimming, and increased climbing behavior are quantitated to assess the antidepressant activity.
Sprague-Dawley rats are fed diet supplemented with Li-DHA, lithium carbonate, or DHA. […] Various established parameters of antidepressant activity including reduced immobility time, increased swimming, and increased climbing behavior are quantitated to assess the antidepressant activity.
Sprague-Dawley rats are fed diet supplemented with Li-DHA-lysoPC, lithium carbonate, or DHA. […] Various established parameters of antidepressant activity including reduced immobility time, increased swimming, and increased climbing behavior are quantitated to assess the antidepressant activity.
Sprague-Dawley rats are fed diet supplemented with Li-EPA, lithium carbonate, or EPA. […] Various established parameters of antidepressant activity including reduced immobility time, increased swimming, and increased climbing behavior are quantitated to assess the antidepressant activity.

Setting [3] is: about 50 mg/Kg/day elemental Mg for 21 days, compared with the fatty acid alone or Mg Citrate.
[4] abbreviates: about 50 mg/kg/day elemental Mg, compared with the fatty acid alone or Mg Citrate.
Setting [5] is: about 1 mg/kg/day elemental Zn for 21 days, compared with the fatty acid alone or zinc gluconate.
The mark [6] stands for this setting: about 1 mg/kg body weight/day elemental zinc, compared with the fatty acid alone or zinc gluconate.

As for `CC/C=C\C/C=C\C/C=C\C/C=C\C/C=C\C/C=C\CCC(=O)[O-].CC/C=C\C/C=C\C/C=C\C/C=C\C/C=C\C/C=C\CCC(=O)[O-].[Mg+2]` [Mg-DHA], the “ability to recognize novel objects” value in assay [1] (setting [3]) is recorded as “statistically significant improvement”. Moreover, in assay [2] (setting [4]), the immobility time entry was “reduction”; the “swimming and climbing behavior” value is reported as “significant increase”.

With `CC/C=C\C/C=C\C/C=C\C/C=C\C/C=C\CCCC(=O)[O-].CC/C=C\C/C=C\C/C=C\C/C=C\C/C=C\CCCC(=O)[O-].[Mg+2]` [Mg-EPA], the “ability to recognize novel objects” value in assay [1] (setting [3]) is “statistically significant improvement”. Further, in assay [2] (setting [4]), the immobility time result is reported as “reduction”; the “swimming and climbing behavior” value is on record as “significant increase”.

Consider `CC/C=C\C/C=C\C/C=C\C/C=C\C/C=C\C/C=C\CCC(=O)[O-].CC/C=C\C/C=C\C/C=C\C/C=C\C/C=C\C/C=C\CCC(=O)[O-].[Zn+2]` [Zn-DHA], for which, in assay [1] (setting [5]), the “ability to recognize novel objects” value is reported as “statistically significant improvement”. Besides, in assay [2] (setting [6]), the immobility time result was “reduction”; the “swimming and climbing behavior” value is “significant increase”.

Take `CC/C=C\C/C=C\C/C=C\C/C=C\C/C=C\CCCC(=O)[O-].CC/C=C\C/C=C\C/C=C\C/C=C\C/C=C\CCCC(=O)[O-].[Zn+2]` [Zn-EPA]: in assay [1] (setting [5]), the “ability to recognize novel objects” value is reported as “statistically significant improvement”. Also, in assay [2] (setting [6]), the immobility time result was “reduction”; the “swimming and climbing behavior” value was “significant increase”.
